Laboratory results from PubChem BioAssay AID256 (DTP/NCI, 2004).
“And” between values parts separate entries of the source, which are not always exact repeats. Equal entries are not always repeated. Toxic doses and inconclusive results are not listed. How the source made its calls: active means survival T/C of 150% or more; inactive means T/C below 125% in these data.

Tested on: CD2F1 mice, L1210 leukemia ip, survival T/C
Assay: NCI In Vivo Anticancer Drug Screen. Data for tumor model L1210 Leukemia (intraperitoneal) in CD2F1 (CDF1) mice
Conditions: higher = longer survival
Summary of the method: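 Ratio T/C, where T is the treated-group value and C the vehicle-dosed control value, from mice implanted with a transplantable tumor.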

[1] = endpoint: mean survival time, dose: 25.0 mg/kg/injection, schedule: Q01DX009 (ip), vehicle: saline with Tween-80
[2] = endpoint: mean survival time, dose: 50.0 mg/kg/injection, schedule: Q01DX009 (ip), vehicle: saline with Tween-80
[3] = endpoint: mean survival time, dose: 100.0 mg/kg/injection, schedule: Q01DX009 (ip), vehicle: saline with Tween-80
[4] = endpoint: mean survival time, dose: 100.0 mg/kg/injection, schedule: Q04DX003 (ip), vehicle: saline with Tween-80
[5] = endpoint: mean survival time, dose: 200.0 mg/kg/injection, schedule: Q04DX003 (ip), vehicle: saline with Tween-80
[6] = endpoint: mean survival time, dose: 400.0 mg/kg/injection, schedule: Q04DX003 (ip), vehicle: saline with Tween-80
[7] = endpoint: mean survival time, dose: 12.5 mg/kg/injection, schedule: Q04DX002 (ip), vehicle: saline with Tween-80
[8] = endpoint: mean survival time, dose: 200.0 mg/kg/injection, schedule: Q01DX009 (ip), vehicle: saline with Tween-80
[9] = endpoint: mean survival time, dose: 400.0 mg/kg/injection, schedule: Q01DX009 (ip), vehicle: saline with Tween-80
[10] = endpoint: mean survival time, dose: 100.0 mg/kg/injection, schedule: Q01DX001 (ip), vehicle: saline with Tween-80
[11] = endpoint: mean survival time, dose: 200.0 mg/kg/injection, schedule: Q01DX001 (ip), vehicle: saline with Tween-80
[12] = endpoint: mean survival time, dose: 12.5 mg/kg/injection, schedule: Q01DX009 (ip), vehicle: saline with Tween-80
[13] = endpoint: mean survival time, dose: 50.0 mg/kg/injection, schedule: Q01DX009 (ip), vehicle: other
[14] = endpoint: mean survival time, dose: 100.0 mg/kg/injection, schedule: Q01DX009 (ip), vehicle: other

Measured: T/C

CN1CCC(c2ccccc2)(c2ccccc2)OC1
inactive: [1] 106 % of control | [2] 98 % of control | [3] 110 % of control

Nc1ncnc2c1c1c(N)[nH]c(=O)nc1n2C1OC(CO)C(O)C1O (stereo unspecified)
inactive: endpoint: mean survival time, dose: 12.5 mg/kg/injection, schedule: Q01DX005 (ip), vehicle: water 106 % of control | endpoint: mean survival time, dose: 25.0 mg/kg/injection, schedule: Q01DX005 (ip), vehicle: water 104 % of control | endpoint: mean survival time, dose: 50.0 mg/kg/injection, schedule: Q01DX005 (ip), vehicle: water 97 % of control | endpoint: mean survival time, dose: 100.0 mg/kg/injection, schedule: Q01DX005 (ip), vehicle: water 104 % of control | endpoint: mean survival time, dose: 200.0 mg/kg/injection, schedule: Q01DX005 (ip), vehicle: water 121 % of control

CC(=O)Oc1cccc(C(C)=O)c1
inactive: [4] 102 % of control | [5] 100 % of control | [6] 104 % of control

O=C(O)CCC(=O)c1ccc2c(c1)CCCC2
inactive: endpoint: mean survival time, dose: 1.56 mg/kg/injection, schedule: Q04DX002 (ip), vehicle: saline with Tween-80 97 % of control | endpoint: mean survival time, dose: 3.13 mg/kg/injection, schedule: Q04DX002 (ip), vehicle: saline with Tween-80 97 % of control | endpoint: mean survival time, dose: 6.25 mg/kg/injection, schedule: Q04DX002 (ip), vehicle: saline with Tween-80 97 % of control | [7] 104 % of control

Cc1ccccc1NC(=O)/C=C\C(=O)O
inactive: endpoint: mean survival time, dose: 20.0 mg/kg/injection, schedule: Q01DX009 (ip), vehicle: saline with Tween-80 105 % of control | endpoint: mean survival time, dose: 20.0 mg/kg/injection, schedule: Q04DX003 (ip), vehicle: saline with Tween-80 102 % of control | endpoint: mean survival time, dose: 40.0 mg/kg/injection, schedule: Q01DX009 (ip), vehicle: saline with Tween-80 104 % of control | endpoint: mean survival time, dose: 40.0 mg/kg/injection, schedule: Q04DX003 (ip), vehicle: saline with Tween-80 97 % of control | endpoint: mean survival time, dose: 80.0 mg/kg/injection, schedule: Q01DX009 (ip), vehicle: saline with Tween-80 102 % of control | endpoint: mean survival time, dose: 80.0 mg/kg/injection, schedule: Q04DX003 (ip), vehicle: saline with Tween-80 97 % of control

C=CCC(Cl)(C(=O)OC)C(=O)OC
inactive: [3] 108 % of control | [8] 108 % of control | [9] 106 % of control

C[n+]1c2ccccc2c(Cl)c2ccccc21
inactive: [10] 104 % of control | [11] 109 % of control

C=Cc1cc(OC)c2c(c1)c(=O)oc1c2cc(OC)c2c(O)ccc(C3OC(C(C)O)C(O)C3O)c21 (stereo unspecified)
inactive: endpoint: median survival time, dose: 25.0 mg/kg/injection, schedule: Q01DX009 (ip), vehicle: Klucel (hydroxypropylcellulose) (HPC) 112 % of control | endpoint: median survival time, dose: 36.0 mg/kg/injection, schedule: Q01DX009 (ip), vehicle: Klucel (hydroxypropylcellulose) (HPC) 118 % of control | endpoint: median survival time, dose: 50.0 mg/kg/injection, schedule: Q01DX009 (ip), vehicle: Klucel (hydroxypropylcellulose) (HPC) 112 % of control | endpoint: median survival time, dose: 60.0 mg/kg/injection, schedule: Q01DX009 (ip), vehicle: Klucel (hydroxypropylcellulose) (HPC) 109 % of control | endpoint: median survival time, dose: 100.0 mg/kg/injection, schedule: Q01DX009 (ip), vehicle: Klucel (hydroxypropylcellulose) (HPC) 113 % of control and 100 % of control | endpoint: median survival time, dose: 166.7 mg/kg/injection, schedule: Q01DX009 (ip), vehicle: Klucel (hydroxypropylcellulose) (HPC) 116 % of control | endpoint: median survival time, dose: 277.8 mg/kg/injection, schedule: Q01DX009 (ip), vehicle: Klucel (hydroxypropylcellulose) (HPC) 120 % of control | endpoint: median survival time, dose: 400.0 mg/kg/injection, schedule: Q01DX009 (ip), vehicle: Klucel (hydroxypropylcellulose) (HPC) 111 % of control

COC(=O)C(CCCCN=Cc1ccccc1O)N=Cc1ccccc1O.[Ni] (stereo unspecified)
inactive: [12] 96 % of control | [1] 96 % of control | [2] 88 % of control and 94 % of control | [3] 93 % of control

CC(=O)Nc1cccc(/C=C/c2cccc([N+](=O)[O-])c2)c1
inactive: endpoint: mean survival time, dose: 100.0 mg/kg/injection, schedule: Q01DX001 (ip), vehicle: Klucel (hydroxypropylcellulose) (HPC) 103 % of control | endpoint: mean survival time, dose: 200.0 mg/kg/injection, schedule: Q01DX001 (ip), vehicle: Klucel (hydroxypropylcellulose) (HPC) 93 % of control | endpoint: mean survival time, dose: 400.0 mg/kg/injection, schedule: Q01DX001 (ip), vehicle: Klucel (hydroxypropylcellulose) (HPC) 100 % of control

C/C(=N/O)C1=C(O)C(Cc2ccccc2)NC1=O (stereo unspecified)
inactive: [7] 100 % of control | endpoint: mean survival time, dose: 25.0 mg/kg/injection, schedule: Q04DX002 (ip), vehicle: saline with Tween-80 121 % of control | endpoint: mean survival time, dose: 50.0 mg/kg/injection, schedule: Q04DX002 (ip), vehicle: saline with Tween-80 103 % of control

Nc1ccc(Cl)cc1N
inactive: endpoint: mean survival time, dose: 25.0 mg/kg/injection, schedule: Q01DX009 (ip), vehicle: other 96 % of control | [13] 102 % of control | endpoint: mean survival time, dose: 75.0 mg/kg/injection, schedule: Q01DX009 (ip), vehicle: other 107 % of control | [14] 106 % of control | endpoint: mean survival time, dose: 150.0 mg/kg/injection, schedule: Q01DX009 (ip), vehicle: other 112 % of control

O=c1[nH]c(SCc2ccc(Cl)cc2)nc(-c2ccc(Cl)cc2)c1CCO
inactive: endpoint: mean survival time, dose: 100.0 mg/kg/injection, schedule: Q01DX009 (ip), vehicle: Klucel (hydroxypropylcellulose) (HPC) 87 % of control | endpoint: mean survival time, dose: 200.0 mg/kg/injection, schedule: Q01DX009 (ip), vehicle: Klucel (hydroxypropylcellulose) (HPC) 87 % of control | endpoint: mean survival time, dose: 400.0 mg/kg/injection, schedule: Q01DX009 (ip), vehicle: Klucel (hydroxypropylcellulose) (HPC) 87 % of control

CN1C(=O)C(=Cc2ccc(O)cc2)C(=O)N(C)C1=O
inactive: [12] 96 % of control and 100 % of control | [1] 102 % of control and 107 % of control | [2] 100 % of control and 108 % of control | [3] 104 % of control and 111 % of control | [8] 102 % of control and 106 % of control | [9] 106 % of control and 111 % of control

O=C(Nc1ccn(C2CC(O)C(CO)O2)c(=O)n1)c1ccccc1 (stereo unspecified)
inactive: endpoint: median survival time, dose: 12.5 mg/kg/injection, schedule: Q01DX005 (ip), vehicle: saline with Tween-80 100 % of control | endpoint: median survival time, dose: 25.0 mg/kg/injection, schedule: Q01DX005 (ip), vehicle: saline with Tween-80 104 % of control | endpoint: median survival time, dose: 50.0 mg/kg/injection, schedule: Q01DX005 (ip), vehicle: saline with Tween-80 103 % of control | endpoint: median survival time, dose: 100.0 mg/kg/injection, schedule: Q01DX005 (ip), vehicle: saline with Tween-80 98 % of control | endpoint: median survival time, dose: 200.0 mg/kg/injection, schedule: Q01DX005 (ip), vehicle: saline with Tween-80 95 % of control

CCn1ncc2ccc(N(CO)CO)cc21
inactive: endpoint: mean survival time, dose: 100.0 mg/kg/injection, schedule: Q04DX003 (ip), vehicle: saline 103 % of control | endpoint: mean survival time, dose: 200.0 mg/kg/injection, schedule: Q04DX003 (ip), vehicle: saline 106 % of control | endpoint: mean survival time, dose: 400.0 mg/kg/injection, schedule: Q04DX003 (ip), vehicle: saline 100 % of control

NC(=S)NN=C1CCC(=NNC(N)=S)CC1
inactive: [13] 94 % of control | [14] 91 % of control | endpoint: mean survival time, dose: 250.0 mg/kg/injection, schedule: Q01DX009 (ip), vehicle: other 89 % of control

COc1ccccc1OCC(C)=O
inactive: [4] 108 % of control | [5] 98 % of control | [6] 97 % of control

CCOC(=O)C(=O)Nc1onc(C)c1NC(=O)C(=O)OCC
inactive: [4] 100 % of control | [5] 107 % of control | [6] 96 % of control

C[N+]1(C)CCOC(O)(c2ccc(-c3ccccc3)cc2)C1 (stereo unspecified)
inactive: endpoint: mean survival time, dose: 3.13 mg/kg/injection, schedule: Q04DX002 (ip), vehicle: saline 98 % of control | endpoint: mean survival time, dose: 6.25 mg/kg/injection, schedule: Q04DX002 (ip), vehicle: saline 91 % of control

CCCCCCCCCCCCCCCC(=O)NCCOC(C)=O
inactive: [2] 89 % of control | [3] 92 % of control | [4] 92 % of control | [8] 93 % of control | [5] 95 % of control | [6] 97 % of control

CCOC(=O)CC(O)c1ccccc1 (stereo unspecified)
inactive: [2] 102 % of control | [3] 102 % of control | [8] 98 % of control

CCC(CC(N)=O)C(C#N)(C#N)C(N)=O (stereo unspecified)
inactive: [10] 100 % of control | [11] 98 % of control | endpoint: mean survival time, dose: 400.0 mg/kg/injection, schedule: Q01DX001 (ip), vehicle: saline with Tween-80 98 % of control

COC(=O)/C=N/NS(=O)(=O)c1cccc(N)c1
inactive: endpoint: mean survival time, dose: 25.0 mg/kg/injection, schedule: Q04DX003 (ip), vehicle: water 110 % of control | endpoint: mean survival time, dose: 50.0 mg/kg/injection, schedule: Q04DX003 (ip), vehicle: water 104 % of control | endpoint: mean survival time, dose: 100.0 mg/kg/injection, schedule: Q04DX003 (ip), vehicle: water 108 % of control | endpoint: mean survival time, dose: 200.0 mg/kg/injection, schedule: Q04DX003 (ip), vehicle: water 112 % of control

CC(CO)(CO)N(CCO)CCO
inactive: [4] 94 % of control | [5] 100 % of control | [6] 92 % of control
